Test results: article PMC6060862, “Prediction and characterization of a novel hemocyanin-derived antimicrobial peptide from shrimp Litopenaeus vannamei” (Amino Acids, 2018)
≈ marks a conversion by molar mass, not a printed value. Like-named read-outs stand apart in the source and are kept apart here. Residues, ends and D or L forms follow the SMILES beside them.

How the values were obtained:
[1] = system: seven bacteria (V. parahaemolyticus, V. fluvialis, V. alginolyticus, E. coli, A. hydrophila, S. aureus, S. pyogenes); assay: MIC summarised over the seven bacteria (GB, average MIC, fold change); format: cell-based; conditions: for GB: summary of the MICs over the seven bacteria, footnote b not given; for decrease of antibacterial activity relative to L1: from MICs of Table 3, except for S.pyogenes
Procedure: (§1) Seven bacteria including Vibrio parahaemolyticus, Vibrio fluvialis, Vibrio alginolyticus, Escherichia coli, Aeromonas hydrophila, Staphylococcus aureus and Streptococcus pyogenes were grown in LB medium at 30 °C and diluted to 10^6 CFU/mL in 0.01 M, pH 7.6 PBS. Peptides were diluted in PBS. The bacteria and diluted peptides were mixed in equal volumes, and then incubated at 30 °C for 2 h. […] Experiments were carried out in triplicate and repeated at least three times. Data are presented as mean ± standard deviation. GraphPad prism 6 was used to analyze the data with the statistical significance determined by one-way ANOVA and Student’s t test, and all experiments were carried out in triplicate.

[2] = system: Streptococcus pyogenes; format: cell-based
Procedure: as §1

[3] = system: Staphylococcus aureus; format: cell-based
Procedure: as §1

[4] = system: Aeromonas hydrophila; format: cell-based
Procedure: as §1

[5] = system: Vibrio alginolyticus; format: cell-based
Procedure: as §1

[6] = system: Vibrio fluvialis; format: cell-based
Procedure: as §1

[7] = system: Escherichia coli; format: cell-based
Procedure: as §1

[8] = system: Vibrio parahaemolyticus; assay: Minimal inhibitory concentration (MIC); format: cell-based; conditions: Gram negative; bacteria 10^6 CFU/mL in 0.01 M PBS pH 7.6 mixed with equal volume of peptide in PBS, 30 °C 2 h, plated on LB agar 30 °C overnight; triplicate, repeated at least three times
Procedure: as §1

[9] = not given; remark: listed apart in the source
[10] = not given; remark: listed apart in the source
[11] = not given; remark: listed apart in the source
[12] = Gram positive, bacteria 10^6 CFU/mL in 0.01 M PBS pH 7.6 mixed with equal volume of peptide in PBS, 30 °C 2 h, plated on LB agar 30 °C overnight, triplicate, repeated at least three times
[13] = Gram negative, bacteria 10^6 CFU/mL in 0.01 M PBS pH 7.6 mixed with equal volume of peptide in PBS, 30 °C 2 h, plated on LB agar 30 °C overnight, triplicate, repeated at least three times

MIC S. pyogenes ([2]; 2 h, pH 7.6)	MIC S. aureus ([3]; 2 h, pH 7.6)	MIC A. hydrophila ([4]; 2 h, pH 7.6)	MIC V. alginolyticus ([5]; 2 h, pH 7.6)	MIC V. fluvialis ([6]; 2 h, pH 7.6)	MIC E. coli ([7]; 2 h, pH 7.6)	Compound	GB [1]	MIC S. pyogenes [2, 12]	MIC S. aureus [3, 12]	MIC A. hydrophila ([4]; Gram negative (Table 2), bacteria 10^6 CFU/mL in 0.01 M PBS pH 7.6 mixed with equal volume of peptide in PBS, 30 °C 2 h, plated on LB agar 30 °C overnight, triplicate, repeated at least three times)	MIC V. alginolyticus [5, 13]	MIC V. fluvialis [6, 13]	MIC E. coli [7, 13]	MIC V. parahaemolyticus [8]	α-helical content	random coil content [9]	β-strand content [10]	β-turns content [11]	average MIC relative to the average MIC of L1 ([1]; over the seven bacteria)	decrease of antibacterial activity relative to L1 [1]
–	–	–	–	–	–	NC[C@H]1O[C@H](O[C@H]2[C@H](O)[C@@H](O[C@H]3O[C@H](CO)[C@@H](O)[C@H](N)[C@H]3O)[C@H](N)C[C@@H]2N)[C@H](O)[C@@H](O)[C@@H]1O [Kanamycin, reference compound]	1.1 µg/mL	1 µg/mL (≈ 2.06 µM)	2 µg/mL (≈ 4.13 µM)	1 µg/mL (≈ 2.06 µM)	0.5 µg/mL (≈ 1.03 µM)	1 µg/mL (≈ 2.06 µM)	2 µg/mL (≈ 4.13 µM)	1 µg/mL (≈ 2.06 µM)	–	–	–	–	–	–
250 µg/mL (≈ 158 µM)	> 250 µg/mL	250 µg/mL (≈ 158 µM)	125 µg/mL (≈ 78.9 µM)	125 µg/mL (≈ 78.9 µM)	> 250 µg/mL	CC(C)C[C@H](NC(=O)[C@H](CCCCN)NC(=O)[C@H](CCC(N)=O)NC(=O)[C@@H](NC(=O)[C@H](C)NC(=O)[C@H](CCC(=O)O)NC(=O)CNC(=O)CN)C(C)C)C(=O)N[C@H](C(=O)N[C@@H](CCCNC(=N)N)C(=O)N[C@@H](CCC(=O)O)C(=O)N[C@H](C(=O)N[C@@H](CCCCN)C(=O)N[C@@H](CC(=O)O)C(=O)NCC(N)=O)C(C)C)C(C)C [L2] (H-GGEAVQKLVREVKDG-NH2; N-terminus and C-terminus assumed)	205.1 µg/mL	–	–	–	–	–	–	250 µg/mL (≈ 158 µM)	–	–	–	–	tenfold	–
250 µg/mL (≈ 145 µM)	250 µg/mL (≈ 145 µM)	31.3 µg/mL (≈ 18.2 µM)	250 µg/mL (≈ 145 µM)	250 µg/mL (≈ 145 µM)	> 250 µg/mL	CC[C@H](C)[C@H](NC(=O)[C@H](CCCNC(=N)N)NC(=O)[C@H](CO)NC(=O)[C@H](CCC(=O)O)NC(=O)[C@@H](NC(=O)[C@@H](NC(=O)[C@H](CC(C)C)NC(=O)[C@H](CC(C)C)NC(=O)[C@H](CC(=O)O)NC(=O)[C@H](CCCNC(=N)N)NC(=O)[C@@H](NC(=O)[C@H](CCCNC(=N)N)NC(=O)[C@H](C)NC(=O)[C@@H](NC(=O)CN)C(C)C)[C@@H](C)CC)[C@@H](C)CC)[C@@H](C)CC)C(N)=O [L8] (H-GVARIRDLLIIESRI-NH2; N-terminus and C-terminus assumed)	185.8 µg/mL	–	–	–	–	–	–	250 µg/mL (≈ 145 µM)	–	–	–	–	–	–
125 µg/mL (≈ 72.5 µM)	> 250 µg/mL	31.3 µg/mL (≈ 18.1 µM)	31.3 µg/mL (≈ 18.1 µM)	125 µg/mL (≈ 72.5 µM)	> 250 µg/mL	CC[C@H](C)[C@H](NC(=O)[C@H](C)NC(=O)[C@H](CC(=O)O)NC(=O)[C@H](CCCNC(=N)N)NC(=O)[C@@H](NC(=O)[C@@H](N)CCCNC(=N)N)[C@@H](C)CC)C(=O)N[C@@H](C)C(=O)N[C@@H](Cc1c[nH]cn1)C(=O)NCC(=O)N[C@@H](Cc1ccc(O)cc1)C(=O)N[C@H](C(=O)N[C@H](C(=O)N[C@@H](CC(=O)O)C(=O)N[C@@H](CCCCN)C(=O)N[C@H](C(N)=O)C(C)C)C(C)C)[C@@H](C)CC [L10] (H-RIRDAIAHGYIVDKV-NH2)	113.3 µg/mL	–	–	–	–	–	–	250 µg/mL (≈ 145 µM)	–	–	–	–	–	–
125 µg/mL (≈ 74.2 µM)	> 250 µg/mL	125 µg/mL (≈ 74.2 µM)	15.6 µg/mL (≈ 9.26 µM)	250 µg/mL (≈ 148 µM)	125 µg/mL (≈ 74.2 µM)	CC[C@H](C)[C@H](NC(=O)[C@H](Cc1c[nH]cn1)NC(=O)[C@H](C)NC(=O)[C@@H](NC(=O)[C@H](CC(N)=O)NC(=O)[C@H](Cc1c[nH]cn1)NC(=O)[C@H](CC(C)C)NC(=O)[C@H](C)NC(=O)CNC(=O)[C@H](Cc1ccc(O)cc1)NC(=O)[C@@H](N)Cc1ccc(O)cc1)[C@@H](C)O)C(=O)N[C@H](C(=O)N[C@@H](CC(C)C)C(=O)NCC(=O)N[C@@H](CCCNC(=N)N)C(N)=O)C(C)C [L12] (H-YYGALHNTAHIVLGR-NH2)	125.0 µg/mL	–	–	–	–	–	–	250 µg/mL (≈ 148 µM)	–	–	–	–	–	–
15.6 µg/mL (≈ 8.93 µM)	> 250 µg/mL	15.6 µg/mL (≈ 8.93 µM)	250 µg/mL (≈ 143 µM)	250 µg/mL (≈ 143 µM)	15.6 µg/mL (≈ 8.93 µM)	CC[C@H](C)[C@H](NC(=O)[C@H](CCCCN)NC(=O)[C@H](Cc1c[nH]cn1)NC(=O)[C@H](CC(C)C)NC(=O)[C@H](CC(C)C)NC(=O)CNC(=O)[C@H](CC(N)=O)NC(=O)[C@@H](N)C(C)C)C(=O)N[C@@H](Cc1ccc(O)cc1)C(=O)NCC(=O)N[C@@H](CC(N)=O)C(=O)N[C@H](C(=O)N[C@@H](CCCNC(=N)N)C(=O)N[C@@H](Cc1ccc(O)cc1)C(=O)N[C@@H](CO)C(N)=O)[C@@H](C)CC [M1] (H-VNGLLHKIYGNIRYS-NH2)	–	–	–	–	–	–	–	62.5 µg/mL (≈ 35.8 µM)	–	–	–	–	–	2- to 64 fold
62.5 µg/mL (≈ 33 µM)	> 250 µg/mL	15.6 µg/mL (≈ 8.24 µM)	> 250 µg/mL	> 250 µg/mL	7.8 µg/mL (≈ 4.12 µM)	CC[C@H](C)[C@H](NC(=O)[C@H](CC(N)=O)NC(=O)[C@H](CC(=O)O)NC(=O)[C@H](Cc1ccc(O)cc1)NC(=O)[C@@H](NC(=O)[C@H](CCCCN)NC(=O)[C@H](Cc1c[nH]cn1)NC(=O)[C@H](CC(C)C)NC(=O)[C@H](CC(C)C)NC(=O)[C@H](Cc1ccccc1)NC(=O)[C@H](CC(N)=O)NC(=O)[C@@H](N)C(C)C)[C@@H](C)CC)C(=O)N[C@@H](CCCNC(=N)N)C(=O)N[C@@H](Cc1ccc(O)cc1)C(=O)N[C@@H](CO)C(N)=O [M2] (H-VNFLLHKIYDNIRYS-NH2)	69.0 µg/mL	–	–	–	–	–	–	62.5 µg/mL (≈ 33 µM)	–	–	–	–	–	2- to 64 fold
62.5 µg/mL (≈ 35 µM)	62.5 µg/mL (≈ 35 µM)	3.9 µg/mL (≈ 2.18 µM)	3.9 µg/mL (≈ 2.18 µM)	62.5 µg/mL (≈ 35 µM)	3.9 µg/mL (≈ 2.18 µM)	CC[C@H](C)[C@H](NC(=O)[C@H](CCCCN)NC(=O)[C@H](Cc1c[nH]cn1)NC(=O)[C@H](CC(C)C)NC(=O)[C@H](CC(C)C)NC(=O)[C@H](Cc1ccccc1)NC(=O)[C@H](CC(N)=O)NC(=O)[C@@H](N)C(C)C)C(=O)N[C@@H](Cc1ccc(O)cc1)C(=O)NCC(=O)N[C@@H](CC(N)=O)C(=O)N[C@H](C(=O)N[C@@H](CCCNC(=N)N)C(=O)N[C@@H](CC(=O)O)C(=O)N[C@@H](CO)C(N)=O)[C@@H](C)CC [M3] (H-VNFLLHKIYGNIRDS-NH2)	14.2 µg/mL	–	–	–	–	–	–	31.2 µg/mL (≈ 17.4 µM)	–	–	–	–	–	no change

Compound	MIC S. pyogenes ([2]; 2 h, pH 7.6)	MIC S. aureus ([3]; 2 h, pH 7.6)	MIC A. hydrophila ([4]; 2 h, pH 7.6)	MIC V. alginolyticus ([5]; 2 h, pH 7.6)	MIC V. fluvialis ([6]; 2 h, pH 7.6)	MIC E. coli ([7]; 2 h, pH 7.6)	GB [1]	MIC S. pyogenes [2, 12]	MIC S. aureus [3, 12]	MIC A. hydrophila ([4]; Gram negative (Table 2), bacteria 10^6 CFU/mL in 0.01 M PBS pH 7.6 mixed with equal volume of peptide in PBS, 30 °C 2 h, plated on LB agar 30 °C overnight, triplicate, repeated at least three times)	MIC V. alginolyticus [5, 13]	MIC V. fluvialis [6, 13]	MIC E. coli [7, 13]	MIC V. parahaemolyticus [8]	α-helical content	random coil content [9]	β-strand content [10]	β-turns content [11]	average MIC relative to the average MIC of L1 ([1]; over the seven bacteria)	decrease of antibacterial activity relative to L1 [1]
CC[C@H](C)[C@H](NC(=O)[C@H](CCCCN)NC(=O)[C@H](Cc1c[nH]cn1)NC(=O)[C@H](CC(C)C)NC(=O)[C@H](CC(C)C)NC(=O)[C@H](Cc1ccccc1)NC(=O)[C@H](CC(N)=O)NC(=O)[C@@H](N)C(C)C)C(=O)N[C@@H](Cc1ccc(O)cc1)C(=O)NCC(=O)N[C@@H](CC(N)=O)C(=O)N[C@H](C(=O)N[C@@H](CCCNC(=N)N)C(=O)N[C@@H](Cc1ccc(O)cc1)C(=O)N[C@@H](CO)C(N)=O)[C@@H](C)CC [L1] (H-VNFLLHKIYGNIRYS-NH2)	62.5 µg/mL (≈ 34 µM)	62.5 µg/mL (≈ 34 µM)	3.9 µg/mL (≈ 2.12 µM)	3.9 µg/mL (≈ 2.12 µM)	62.5 µg/mL (≈ 34 µM)	3.9 µg/mL (≈ 2.12 µM)	–	–	–	–	–	–	–	31.2 µg/mL (≈ 17 µM)	34.6%	33.4%	11.2%	24%	–	–
